Laboratory results reported in patent US20090143279A1 (priority 2007, published 2009).
Read-outs that look alike come from different tables or passages of the source.

Legend:
[1] = system: cellular dehydrogenase activity; conditions: for MTT (composite Z-score): normalized score vs mock-treated (DMSO) wells
[2] = system: C2C12 myotubes; conditions: for Viability (composite Z-score): normalized score vs mock-treated (DMSO) wells
[3] = system: nuOXPHOS transcripts; assay type: cell-based, mouse; conditions: for nucOX (composite Z-score): normalized score vs mock-treated (DMSO) wells
[4] = system: OXPHOS gene expression; assay type: cell-based, mouse; conditions: for GE-HTS (composite Z-score): normalized score vs mock-treated (DMSO) wells
[5] = system: cytochrome c; assay type: cell-based, mouse; conditions: for cyt c (composite Z-score): normalized score vs mock-treated (DMSO) wells
[6] = system: mitochondrial membrane potential; assay type: cell-based, mouse; conditions: for ΔΨm (composite Z-score): normalized score vs mock-treated (DMSO) wells
[7] = system: reactive oxygen species; assay type: cell-based, mouse; conditions: for ROS (composite Z-score): normalized score vs mock-treated (DMSO) wells
[8] = system: mtOXPHOS transcripts; assay type: cell-based, mouse; conditions: for mitoOX (composite Z-score): normalized score vs mock-treated (DMSO) wells
[9] = 12.18 μM, composite Z-score vs DMSO
[10] = 20 μM, composite Z-score vs DMSO
[11] = normalized composite Z-score vs mock-treated (DMSO) wells, Conc 20 μM
[12] = Table 6, C2C12 myotubes, 48 h, composite Z-score
[13] = composite Z-score vs DMSO wells, Conc 20 μM
[14] = 20.6 μM, composite Z-score vs DMSO
[15] = composite Z-score vs DMSO, Conc 20 μM
[16] = composite Z-score vs mock-treated (DMSO) wells, Conc 20 μM

CC(C)(C#N)O[C@@H]1O[C@H](CO)[C@@H](O)[C@H](O)[C@H]1O [linamarin]
MTT (composite Z-score) ([1]; Conc 20 μM): −1.611 | Viability (composite Z-score) ([2]; Conc 20 μM): 0.796 | nucOX (composite Z-score) ([3]; Conc 20 μM): −0.847 | GE-HTS (composite Z-score) ([4]; Conc 20 μM): −1.024 | cyt c (composite Z-score) ([5]; Conc 20 μM): −0.052 | ΔΨm (composite Z-score) ([6]; Conc 20 μM): −0.333 | ROS (composite Z-score) ([7]; Conc 20 μM): −0.189 | mitoOX (composite Z-score) ([8]; Conc 20 μM): −1.232

CCN(CC)CCNC(=O)c1cc(S(C)(=O)=O)ccc1OC [tiapride]
MTT [1, 9]: −1.563 | MTT [1, 10]: −0.646 | Viability [2, 9]: −1.454 | Viability [2, 10]: 1.174 | nucOX [3, 9]: 0.416 | nucOX [3, 10]: −0.220 | GE-HTS [4, 9]: 0.341 | GE-HTS [4, 10]: −0.283 | cyt c [5, 9]: 0.917 | cyt c [5, 10]: −0.107 | ΔΨm [6, 9]: −0.800 | ΔΨm [6, 10]: 0.171 | ROS [7, 9]: 0.653 | ROS [7, 10]: −0.466 | mitoOX [8, 9]: 0.086 | mitoOX [8, 10]: −0.355

CCCC(C(=O)OCCN(CC)CC)(c1ccccc1)c1ccccc1 [proadifen]
MTT [1]: −1.220 | MTT [1, 10]: −1.808 | Viability [2]: −0.388 | Viability [2, 10]: −1.715 | nucOX [3]: −0.414 | nucOX [3, 10]: −0.243 | GE-HTS [4]: −0.364 | GE-HTS [4, 10]: −0.377 | cyt c [5]: 0.223 | cyt c [5, 10]: −0.077 | ΔΨm [6]: −0.557 | ΔΨm [6, 10]: −0.654 | ROS [7]: 0.616 | ROS [7, 10]: 0.678 | mitoOX [8]: −0.201 | mitoOX [8, 10]: −0.595

COc1ccc2c(c1)OCC(Cc1ccc(OC)c(OC)c1)C2O (stereo not shown) [3-deshydroxysappanol trimethyl ether, reference compound]
MTT [1, 11]: −0.416 | Viability [2, 11]: 0.416 | nucOX [3, 11]: 0.557 | GEHTS_Zscore [4, 12]: 1.970 | GE-HTS [4, 11]: 0.465 | cyt c [5, 11]: −0.948 | ΔΨm [6, 11]: 0.033 | ROS Zscore [7, 12]: 1.3852 | ROS [7, 11]: 1.385 | mitoOX [8, 11]: 0.224

C[N+]1(C)CCCC(OC(=O)C(O)(c2ccccc2)c2ccccc2)C1 (stereo not shown) [mepenzolate]
MTT [1, 13]: −0.894 | Viability [2, 13]: 0.333 | nucOX [3, 13]: 0.062 | GE-HTS [4, 13]: −0.025 | cyt c [5]: 0.666 | cyt c [5, 13]: 0.855 | ΔΨm [6, 13]: 1.198 | ROS [7, 13]: 0.368 | mitoOX [8, 13]: −0.129

CC1(C)C2CC(=O)[C@]3(C)C(CC[C@@]4(C)[C@H](c5ccoc5)OC(=O)C5OC543)[C@@]2(C)[C@@H](O)C[C@H]1O (stereo partly shown) [1,3-dideacetyl-7-deacetoxy-7-oxokhivorin]
MTT [1, 11]: −1.399 | Viability [2, 11]: 0.190 | nucOX [3, 11]: −0.716 | GE-HTS [4, 11]: −0.665 | cyt c [5, 11]: 0.226 | ΔΨm [6, 11]: 1.329 | ROS [7, 11]: 1.267 | mitoOX [8, 11]: −0.497

Nc1ccc(C(=O)NCC(=O)O)cc1 [aminohippuric acid]
MTT [1, 10]: −0.983 | MTT [1, 14]: −0.126 | Viability [2, 10]: 0.597 | Viability [2, 14]: −0.266 | nucOX [3, 10]: 0.160 | nucOX [3, 14]: 0.976 | GE-HTS [4, 10]: 0.220 | GE-HTS [4, 14]: 0.568 | cyt c [5, 10]: 0.243 | cyt c [5, 14]: 0.320 | ΔΨm [6, 10]: −0.606 | ΔΨm [6, 14]: −0.343 | ROS [7, 10]: −0.310 | ROS [7, 14]: 0.426 | mitoOX [8, 10]: 0.304 | mitoOX [8, 14]: −0.395

COc1c(O)cccc1O [2-methoxyresorcinol]
MTT (composite Z-score) ([1]; Conc 20 μM): 0.266 | Viability (composite Z-score) ([2]; Conc 20 μM): 0.514 | nucOX (composite Z-score) ([3]; Conc 20 μM): −0.150 | GE-HTS (composite Z-score) ([4]; Conc 20 μM): 0.218 | cyt c (composite Z-score) ([5]; Conc 20 μM): −0.146 | ΔΨm (composite Z-score) ([6]; Conc 20 μM): −0.536 | ROS (composite Z-score) ([7]; Conc 20 μM): 0.864 | mitoOX (composite Z-score) ([8]; Conc 20 μM): 0.954

C[C@@H]1CC[C@@]2(OC1)O[C@H]1C[C@H]3[C@@H]4CC=C5C[C@@H](O)CC[C@]5(C)[C@H]4CC[C@]3(C)[C@H]1[C@@H]2C [diosgenin]
MTT [1, 15]: −1.597 | Viability [2, 15]: −0.044 | nucOX [3, 15]: −0.445 | GE-HTS [4, 15]: −0.245 | cyt c [5, 15]: −0.679 | ΔΨm [6, 15]: −0.353 | ROS [7, 15]: 0.048 | mitoOX [8, 15]: 0.146

NCCc1ccc(O)c(O)c1 [dopamine]
MTT [1]: −0.754 | Viability [2]: −0.964 | nucOX [3]: −0.112 | GE-HTS [4]: −0.337 | cyt c [5]: 0.007 | ΔΨm [6]: −0.849 | ROS [7]: −0.046 | mitoOX [8]: −0.655

C/C=C(/C)C(=O)O[C@H]1Cc2c(ccc3ccc(=O)oc23)OC1(C)C [selinidin]
MTT (composite Z-score) ([1]; Conc 20 μM): −0.359 | Viability (composite Z-score) ([2]; Conc 20 μM): 0.773 | nucOX (composite Z-score) ([3]; Conc 20 μM): −0.328 | GE-HTS (composite Z-score) ([4]; Conc 20 μM): −0.347 | cyt c (composite Z-score) ([5]; Conc 20 μM): −0.478 | ΔΨm (composite Z-score) ([6]; Conc 20 μM): 0.013 | ROS (composite Z-score) ([7]; Conc 20 μM): 0.838 | mitoOX (composite Z-score) ([8]; Conc 20 μM): −0.285

CC(=O)O[C@]1(C)CC[C@@]23C[C@@H]1C(C)(C)[C@@H]2CC[C@H]3C [cedryl acetate]
MTT [1, 11]: −0.176 | Viability [2, 11]: −0.311 | nucOX [3, 11]: 0.184 | GE-HTS [4, 11]: 0.067 | cyt c [5, 11]: 0.388 | ΔΨm [6, 11]: −0.042 | ROS [7, 11]: 1.566 | mitoOX [8, 11]: −0.149

CC(C)(O)CC[C@@H](O)[C@](C)(O)[C@H]1CC[C@@]2(O)C3=CC(=O)[C@@H]4C[C@@H](O)[C@@H](O)C[C@]4(C)[C@H]3CC[C@]12C [crustecdysone]
MTT (composite Z-score) ([1]; Conc 20 μM): −0.545 | Viability (composite Z-score) ([2]; Conc 20 μM): −0.458 | nucOX (composite Z-score) ([3]; Conc 20 μM): 0.487 | GE-HTS (composite Z-score) ([4]; Conc 20 μM): 0.354 | cyt c (composite Z-score) ([5]; Conc 20 μM): 0.468 | ΔΨm (composite Z-score) ([6]; Conc 20 μM): −0.721 | ROS (composite Z-score) ([7]; Conc 20 μM): 0.657 | mitoOX (composite Z-score) ([8]; Conc 20 μM): 0.062

O=c1c2ccccc2oc2ccc(O)cc12 [2-hydroxyxanthone]
MTT [1, 15]: −1.863 | Viability [2, 15]: −0.402 | nucOX [3, 15]: −0.173 | GE-HTS [4, 15]: −0.364 | cyt c [5, 15]: 0.238 | ΔΨm [6, 15]: −0.245 | ROS [7, 15]: 1.660 | mitoOX [8, 15]: −0.652

CO/N=C(\C(=O)N[C@@H]1C(=O)N2C(C(=O)O)=C(COC(C)=O)CS[C@H]12)c1csc(N)n1 [cefotaxime]
MTT [1, 15]: −2.276 | Viability [2, 15]: −1.283 | nucOX [3, 15]: −0.450 | GE-HTS [4, 15]: −0.379 | cyt c [5, 15]: 0.366 | ΔΨm [6, 15]: −0.276 | ROS [7, 15]: 1.000 | mitoOX [8, 15]: −0.214

COc1cccc(-c2cc(=O)c3cc(OC)ccc3o2)c1 [6,3′-dimethoxyflavone]
MTT [1, 16]: −1.534 | Viability [2, 16]: 0.413 | nucOX [3, 16]: 0.087 | GE-HTS [4, 16]: 0.072 | cyt c [5, 16]: 0.245 | ΔΨm [6, 16]: 1.915 | ROS [7, 16]: −0.882 | mitoOX [8, 16]: −0.021

CC1(C)OC(=O)C=CC2(C)C1CC(O)C1(C)C2CCC2(C)C(c3ccoc3)OC(=O)C3OC321 (stereo not shown) [obacunol]
MTT [1, 16]: −0.982 | Viability [2, 16]: 2.016 | nucOX [3, 16]: −0.927 | GE-HTS [4, 16]: −0.906 | cyt c [5, 16]: 0.859 | ΔΨm [6, 16]: 0.464 | ROS [7, 16]: −0.134 | mitoOX [8, 16]: −0.734
